Reference: patent publication US20240382482A1, “PLASMA KALLIKREIN INHIBITORS” (TAKEDA PHARMACEUTICAL COMPANY LIMITED, priority 2021, published 2024)
Where a name gives a salt, the structure may show the parent alone.

Molecular target: human activated kallikrein enzyme (Homo sapiens, UniProt P03952)
Test: Inhibition of human activated kallikrein enzyme, fluorogenic peptide substrate assay (500 pM enzyme format)
Assay type: biochemical
Conditions: 500 pM activated kallikrein, 300 μM PFR-AMC substrate, 30 min preincubation, 10 min reaction, room temperature; read-out: Primary Dose Response Assay: Average EC50
Protocol: Compounds were evaluated for inhibition of the human activated kallikrein enzyme in two formats of an assay employing a fluorogenic peptide substrate. In one assay format, the concentrations of reagents were as follows: 20 mM Tris pH 7.5, 1 mM EDTA, 150 mM sodium chloride, 0.1% PEG-400, 0.1% Triton X-100, 500 pM activated kallikrein enzyme, 300 μM Pro-Phe-Arg-7-amido-4-methylcoumarin (PFR-AMC) substrate. Prior to reaction initiation with substrate, enzyme and inhibitors were preincubated for 30 min at room temperature. After initiation with substrate, reactions were incubated for 10 min at room temperature and fluorescence emission at 460 nm from 380 nm excitation measured with a microplate reader. In another assay format, the concentrations of reagents were as follows: 20 mM Tris pH 7.5, 1 mM EDTA, 150 mM sodium chloride, 0.1% PEG-400, 0.1% Triton X-100, 5 pM activated kallikrein enzyme, 300 uM PFR-AMC substrate. Prior to reaction initiation with substrate, enzyme and inhibitors were preincubated for 30 min at room temperature. After initiation with substrate, reactions were incubated for 18 hr at room temperature and fluorescence emission at 460 nm from 380 nm excitation measured with a microplate reader.
Table 1 provides the results of the assay in the format with 500 pM activated kallikrein assay. For the compounds listed in Table 1, the EC50 values are reported according to the following ranges: A≤5.0 nM; 5.0 nM<B≤50 nM; 50 nM<C≤500 nM; 500 nM<D≤9000 nM; 9000 nM<E.

Sequence of human activated kallikrein enzyme (P03952 391-638 limits assumed): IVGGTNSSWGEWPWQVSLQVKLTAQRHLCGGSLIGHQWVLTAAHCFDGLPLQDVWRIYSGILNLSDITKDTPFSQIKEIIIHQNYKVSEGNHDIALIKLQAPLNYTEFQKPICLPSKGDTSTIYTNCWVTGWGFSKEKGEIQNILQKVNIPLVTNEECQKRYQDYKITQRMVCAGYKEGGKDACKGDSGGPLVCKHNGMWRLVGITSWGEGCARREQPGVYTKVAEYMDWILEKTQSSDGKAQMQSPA
Sequence of human activated kallikrein enzyme (P03952 20-390 partner limits assumed): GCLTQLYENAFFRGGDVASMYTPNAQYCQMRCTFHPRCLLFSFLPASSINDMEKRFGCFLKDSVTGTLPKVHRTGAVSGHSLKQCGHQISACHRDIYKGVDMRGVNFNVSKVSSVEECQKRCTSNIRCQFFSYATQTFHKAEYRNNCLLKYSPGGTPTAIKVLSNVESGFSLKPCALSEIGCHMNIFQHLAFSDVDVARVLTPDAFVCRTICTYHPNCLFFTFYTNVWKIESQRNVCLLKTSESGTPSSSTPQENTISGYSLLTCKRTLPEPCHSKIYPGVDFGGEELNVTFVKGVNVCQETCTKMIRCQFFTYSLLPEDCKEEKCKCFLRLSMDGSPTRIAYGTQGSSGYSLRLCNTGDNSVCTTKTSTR

Row | SMILES | EC50
1 | CCOC(=O)CCc1cc(C2CC2)cn2cc(CNc3cc(NC(=O)Cc4ncn5ccc(Cl)cc45)ncn3)nc12 [Example 38, ethyl 3-(2-(((6-(2-(7-chloroimidazo[1,5-a]pyridin-1-yl)acetamido)pyrimidin-4-yl)amino)methyl)-6-cyclopropylimidazo[1,2-a]pyridin-8-yl)propanoate] | ≤ 5 nM
2 | O=C(O)CCc1cc(C2CC2)cn2cc(CNc3cc(NC(=O)Cc4ncn5ccc(Cl)cc45)ncn3)nc12 [Example 39, 3-(2-(((6-(2-(7-chloroimidazo[1,5-a]pyridin-1-yl)acetamido)pyrimidin-4-yl)amino)methyl)-6-cyclopropylimidazo[1,2-a]pyridin-8-yl)propanoic acid] | ≤ 5 nM
3 | CC(C)(Cc1cc(C2CC2)cn2cc(CNc3cc(NC(=O)Cc4ncn5ccc(Cl)cc45)ncn3)nc12)C(=O)O [Example 40, 3-(2-(((6-(2-(7-chloroimidazo[1,5-a]pyridin-1-yl)acetamido)pyrimidin-4-yl)amino)methyl)-6-cyclopropylimidazo[1,2-a]pyridin-8-yl)-2,2-dimethylpropanoic acid] | ≤ 5 nM
4 | O=C(Cc1ncn2ccc(Cl)cc12)Nc1cncnc1NCc1cn2cc(C3CC3)cc(CO)c2n1 [Example 41, 2-(7-chloroimidazo[1,5-a]pyridin-1-yl)-N-(4-(((6-cyclopropyl-8-(hydroxymethyl)imidazo[1,2-a]pyridin-2-yl)methyl)amino)pyrimidin-5-yl)acetamide] | 5 to 50 nM
5 | O=C(Cc1ncn2ccc(Cl)cc12)Nc1cncnc1NCc1cn2cc(C3CC3)ccc2n1 [Example 42, 2-(7-chloroimidazo[1,5-a]pyridin-1-yl)-N-(4-(((6-cyclopropylimidazo[1,2-a]pyridin-2-yl)methyl)amino)pyrimidin-5-yl)acetamide] | 50 to 500 nM
6 | O=C(Cc1ncn2ccc(Cl)cc12)Nc1cncnc1NCc1cn2c(F)c(C3CC3)ccc2n1 [Example 43, 2-(7-chloroimidazo[1,5-a]pyridin-1-yl)-N-(4-(((6-cyclopropyl-5-fluoroimidazo[1,2-a]pyridin-2-yl)methyl)amino)pyrimidin-5-yl)acetamide] | 5 to 50 nM
7 | O=C(Cc1ncn2ccc(Cl)cc12)Nc1cc(NCc2cn3cc(C4CC4)cc(CO)c3n2)ncn1 [Example 44, 2-(7-chloroimidazo[1,5-a]pyridin-1-yl)-N-(6-(((6-cyclopropyl-8-(hydroxymethyl)imidazo[1,2-a]pyridin-2-yl)methyl)amino)pyrimidin-4-yl)acetamide] | ≤ 5 nM
8 | O=C(Cc1ncn2ccc(Cl)cc12)Nc1cc(NCc2cn3c(F)c(C4CC4)ccc3n2)ncn1 [Example 46, 2-(7-chloroimidazo[1,5-a]pyridin-1-yl)-N-(6-(((6-cyclopropyl-5-fluoro-imidazo[1,2-a]pyridin-2-yl)methyl)amino)pyrimidin-4-yl)acetamide] | ≤ 5 nM
9 | CCOC(=O)C(C)(C)Cc1cc(C2CC2)cn2cc(CNc3cc(NC(=O)Cc4ncn5ccc(Cl)cc45)ncn3)nc12 [Example 47, ethyl 3-(2-(((6-(2-(7-chloroimidazo[1,5-a]pyridin-1-yl)acetamido)pyrimidin-4-yl)amino)methyl)-6-cyclopropylimidazo[1,2-a]pyridin-8-yl)-2,2-dimethylpropanoate] | 5 to 50 nM
10 | O=C(Cc1ncn2ccc(Cl)cc12)Nc1cc(NCc2cn3cc(C4CC4)cc(CN4CCOCC4)c3n2)ncn1 [Example 48, 2-(7-chloroimidazo[1,5-a]pyridin-1-yl)-N-(6-(((6-cyclopropyl-8-(morpholinomethyl)imidazo[1,2-a]pyridin-2-yl)methyl)amino)pyrimidin-4-yl)acetamide] | ≤ 5 nM
11 | O=C(Cc1ncn2ccc(Cl)cc12)Nc1cc(Cc2cn3cc(C4CC4)ccc3n2)ncn1 [Example 57, 2-(7-chloroimidazo[1,5-a]pyridin-1-yl)-N-(6-((6-cyclopropylimidazo[1,2-a]pyridin-2-yl)methyl)pyrimidin-4-yl)acetamide formic acid salt] | ≤ 5 nM
12 | O=C(Cc1ncn2ccc(Cl)cc12)Nc1cc(C(=O)c2cn3cc(C4CC4)ccc3n2)ncn1 [Example 58, 2-(7-chloroimidazo[1,5-a]pyridin-1-yl)-N-(6-(6-cyclopropylimidazo[1,2-a]pyridine-2-carbonyl)pyrimidin-4-yl)acetamide] | 500 to 9000 nM
13 | O=C(Cc1ncn2ccc(Cl)cc12)Nc1cc(C(F)(F)c2cn3cc(C4CC4)ccc3n2)ncn1 [Example 60, 2-(7-chloroimidazo[1,5-a]pyridin-1-yl)-N-(6-((6-cyclopropylimidazo[1,2-a]pyridin-2-yl)difluoromethyl)pyrimidin-4-yl)acetamide formic acid salt] | 50 to 500 nM
14 | CC(C(=O)Nc1cc(C(F)(F)c2cn3cc(C4CC4)ccc3n2)ncn1)c1ncn2ccc(Cl)cc12 (stereo not shown) [Example 61, 2-(7-chloroimidazo[1,5-a]pyridin-1-yl)-N-(6-((6-cyclopropylimidazo[1,2-a]pyridin-2-yl)difluoromethyl)pyrimidin-4-yl)propanamide] | 500 to 9000 nM

Other lines, results leading:

Row | EC50 | SMILES
15 | 5 to 50 nM | O=C(Cc1cc(Cl)ccc1-n1cnnn1)Nc1cc(NCc2cn3cc(C4CC4)ccc3n2)ncn1 [Example 35, 2-(5-chloro-2-(1H-tetrazol-1-yl)phenyl)-N-(6-(((6-cyclopropylimidazo[1,2-a]pyridin-2-yl)methyl)amino)pyrimidin-4-yl)acetamide]
16 | 500 to 9000 nM | COc1ccc(N)c(CC(=O)Nc2cc(NCc3cn4cc(C5CC5)ccc4n3)ncn2)c1F [Example 36, 2-(6-amino-2-fluoro-3-methoxyphenyl)-N-(6-(((6-cyclopropylimidazo[1,2-a]pyridin-2-yl)methyl)amino)pyrimidin-4-yl)acetamide]
17 | ≤ 5 nM | COc1ccc(-n2cnnn2)c(CC(=O)Nc2cc(NCc3cn4cc(C5CC5)ccc4n3)ncn2)c1F [Example 37]
18 | 5 to 50 nM | CC(Nc1cc(NC(=O)Cc2ncn3ccc(Cl)cc23)ncn1)c1cn2cc(C3CC3)ccc2n1 (stereo not shown) [Example 45, 2-(7-chloroimidazo[1,5-a]pyridin-1-yl)-N-(6-((1-(6-cyclopropylimidazo[1,2-a]pyridin-2-yl)ethyl)amino)pyrimidin-4-yl)acetamide]
19 | 500 to 9000 nM | CC(Oc1cccc(Cl)c1)C(=O)Nc1cc(NCc2cn3cc(C4CC4)ccc3n2)ncn1 (stereo not shown) [Example 49, 2-(3-chlorophenoxy)-N-(6-(((6-cyclopropylimidazo[1,2-a]pyridin-2-yl)methyl)amino)pyrimidin-4-yl)propanamide formic acid salt]
20 | 5 to 50 nM | O=C(/C=C/c1cccc(Cl)c1)Nc1cc(NCc2cn3cc(C4CC4)ccc3n2)ncn1 [Example 50, (E)-3-(3-chlorophenyl)-N-(6-(((6-cyclopropylimidazo[1,2-a]pyridin-2-yl)methyl)amino)pyrimidin-4-yl)acrylamide]
21 | > 9000 nM | O=C(Cc1cc(Cl)ccc1Br)Nc1cc(NCc2cn3cc(C4CC4)ccc3n2)ncn1 [Example 51, 2-(2-bromo-5-chlorophenyl)-N-(6-(((6-cyclopropylimidazo[1,2-a]pyridin-2-yl)methyl)amino)pyrimidin-4-yl)acetamide]
22 | ≤ 5 nM | O=C(Cc1ncn2ccc(Br)c(F)c12)Nc1cc(NCc2cn3cc(C4CC4)ccc3n2)ncn1 [Example 53, 2-(7-bromo-8-fluoroimidazo[1,5-a]pyridin-1-yl)-N-(6-(((6-cyclopropylimidazo[1,2-a]pyridin-2-yl)methyl)amino)pyrimidin-4-yl)acetamide]
23 | ≤ 5 nM | O=C(Nc1cc(NCc2cn3cc(C4CC4)ccc3n2)ncn1)C(=O)c1ncn2ccc(Cl)cc12 [Example 54, 2-(7-chloroimidazo[1,5-a]pyridin-1-yl)-N-(6-(((6-cyclopropylimidazo[1,2-a]pyridin-2-yl)methy)amino)pyrimidin-4-yl)-2-oxoacetamide]
24 | 5 to 50 nM | Nc1nccc2c1CCC2Nc1cc(NCc2cn3cc(C4CC4)ccc3n2)ncn1 (stereo not shown) [Example 56, N^5-(6-(((6-cyclopropylimidazo[1,2-a]pyridin-2-yl)methyl)amino)pyrimidin-4-yl)-6,7-dihydro-5H-cyclopenta[c]pyridine-1,5-diamine]
25 | ≤ 5 nM | O=C(Cc1ncn2ccc(Cl)cc12)Nc1cc(C(O)c2cn3cc(C4CC4)ccc3n2)ncn1 (stereo not shown) [Example 59, 2-(7-chloroimidazo[1,5-a]pyridin-1-yl)-N-(6-((6-cyclopropylimidazo[1,2-a]pyridin-2-yl)(hydroxy)methyl)pyrimidin-4-yl)acetamide]
26 | 500 to 9000 nM | COc1ccc(-n2cnnn2)c(CNc2cc(C(F)(F)c3cn4cc(C5CC5)ccc4n3)ncn2)c1F [Example 62, 6-((6-cyclopropylimidazo[1,2-a]pyridin-2-yl)difluoromethyl)-N-(2-fluoro-3-methoxy-6-(1H-tetrazol-1-yl)benzyl)pyrimidin-4-amine]
27 | 5 to 50 nM | COc1ccc(-n2cnnn2)c(CNc2cc(C(O)c3cn4cc(C5CC5)ccc4n3)ncn2)c1F (stereo not shown) [Example 63, (6-cyclopropylimidazo[1,2-a]pyridin-2-yl)(6-((2-fluoro-3-methoxy-6-(H-tetrazol-1-yl)benzyl)amino)pyrimidin-4-yl)methanol]
28 | 5 to 50 nM | Cc1cc(N)nc(C)c1CNc1cc(C(O)c2cn3cc(C4CC4)ccc3n2)ncn1 (stereo not shown) [Example 64, (6-(((6-amino-2,4-dimethylpyridin-3-yl)methyl)amino)pyrimidin-4-yl)(6-cyclopropylimidazo[1,2-a]pyridin-2-yl)methanol bisformic acid salt]
